Measurements reported in patent US20250296971A1, “GASTRIC INHIBITORY PEPTIDE RECEPTOR LIGANDS” (priority 2021, published 2025).
*1 amine or outer side, *2 acyl side, *3 side chain or, on linkers, in order; H or OH if unused. Where a SMILES comes first, the peptide text is derived from it. Bridges are numbered along the chain shown (N, C = ends). [ ]: non-standard residue; d: D form. The star is where a group is joined. NH(1-deoxy-D-glucityl) = OC[C@@H](O)[C@@H](O)[C@H](O)[C@@H](O)CN*; DOTA = O=C(O)CN1CCN(CC(=O)O)CCN(CC(=O)*)CCN(CC(=O)O)CC1; Trp(5-Cl) = N[C@@H](Cc1c[nH]c2ccc(Cl)cc12)C(=O)O; Pyridine(2,6-diCH2) = c1cc(C[*:1])nc(C[*:2])c1; Pro(4R-NH2) = N[C@H]1CN[C@H](C(=O)O)C1; Glutaryl = O=C(CCCC(=O)[*:2])[*:1]; X1 = O=C(CN1CCC(N[*:1])CC1)[*:2]; Api = NC1(C(=O)O)CCNCC1

How the values were obtained:
[1] = molecular target: T1, GIPR (CHO-K1-hGIPR cells) (Homo sapiens, UniProt P48546); assay: FACS binding assay; settings: competition with 20 nM GIP-057, 4° C., 1 hour, read-out: pIC50 Category (converted)
T1 construct: host or cells: CHO-K1
T1 sequence (P48546 22-466): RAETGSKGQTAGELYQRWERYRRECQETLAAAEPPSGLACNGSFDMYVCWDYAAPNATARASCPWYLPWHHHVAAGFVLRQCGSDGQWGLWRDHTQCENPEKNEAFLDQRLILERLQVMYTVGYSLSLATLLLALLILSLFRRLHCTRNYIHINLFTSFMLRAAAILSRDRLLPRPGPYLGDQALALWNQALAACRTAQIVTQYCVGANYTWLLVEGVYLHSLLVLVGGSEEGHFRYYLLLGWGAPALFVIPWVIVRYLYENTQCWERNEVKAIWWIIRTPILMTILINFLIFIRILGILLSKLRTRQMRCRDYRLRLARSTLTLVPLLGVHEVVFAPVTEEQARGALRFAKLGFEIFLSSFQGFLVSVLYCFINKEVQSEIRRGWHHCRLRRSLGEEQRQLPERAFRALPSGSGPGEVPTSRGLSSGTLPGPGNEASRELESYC
Outline: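 CHO-K1 cells expressing human GIPR, washed in PBS/1% FCS, then stained with 1 μg/mL APC-streptavidin for 30 min on ice.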

[2] = molecular target: T2, Mouse GIPR (Mus musculus, UniProt Q0P543); assay: Radioligand binding assay, mouse GIPR; settings: 111In-labeled compound, 6 h, 37° C., read-out: pKD Category (converted)
T2 construct: host or cells: CHO-VGT
T2 sequence (Q0P543 19-460): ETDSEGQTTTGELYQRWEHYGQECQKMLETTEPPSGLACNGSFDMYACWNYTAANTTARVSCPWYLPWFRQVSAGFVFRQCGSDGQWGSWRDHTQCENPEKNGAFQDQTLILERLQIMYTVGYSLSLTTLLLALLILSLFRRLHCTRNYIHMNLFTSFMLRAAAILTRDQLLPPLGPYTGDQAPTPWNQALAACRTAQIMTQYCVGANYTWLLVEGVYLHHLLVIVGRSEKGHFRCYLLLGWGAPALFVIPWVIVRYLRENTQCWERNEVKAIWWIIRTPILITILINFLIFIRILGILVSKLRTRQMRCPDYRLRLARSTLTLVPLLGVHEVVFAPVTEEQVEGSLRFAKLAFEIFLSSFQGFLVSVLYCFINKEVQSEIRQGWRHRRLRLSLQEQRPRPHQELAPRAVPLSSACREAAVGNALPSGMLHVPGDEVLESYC
Description: (§1) In order to assess the affinity of ^111In-labeled compounds to the GIPR receptor of different species, a radioligand binding assay was established.
(§2) CHO-K1 cells (GenScript Biotech, #M00486) were stably transfected with the human GIPR. CHO-K1-hGIPR cells were cultured in Ham's F12 medium (Sigma-Aldrich, #N4888) including 10% fetal calf serum (FCS), 2 mM L-glutamine, 100 U/mL penicillin, 100 µg/mL streptomycin, 200 µg/mL Zeocin and 100 µg/mL HygromycinB. To evaluate the species cross-reactivity, CHO-VGT cells were transfected with the human, dog, rat and mouse GIPR (Inscreenex GmbH), which were cultured in DMEM/Ham's F12 Medium 1:1 (Biochrom, #F485) including 5% fetal calf serum (FCS), 2 mM L-glutamine, 100 U/mL penicillin and 100 μg/mL streptomycin. Cells were detached with Accutase (Biolegend, #BLD-423201) and counted using a particle counter (CASY Model TT; Schärfe Systems). Cell concentrations were adjusted to 3×10^5 mL^−1, and 1.000 μL of the suspension per well were dispensed into flat-clear-bottom 24 well plates.
(§3) Approximately 24 hours after re-seeding, the medium was aspirated and the cells were washed once with 700 μL assay medium (Ham's medium with 20 mM HEPES). […]
(§4) At the end of incubation time, cells were washed and subsequently harvested in 300 μL RIPA buffer containing PIC. Radioactivity of the cell lysate of each well was counted using a gamma counter (Perkin Elmer). […]

[3] = molecular target: T3, Human GIPR (Homo sapiens, UniProt P48546); assay: Radioligand binding assay, human GIPR; settings: 111In-labeled compound, 6 h, 37° C., read-out: pKD Category (converted)
T3 construct: host or cells: CHO-K1 or CHO-VGT
T3 sequence (P48546 22-466): T1 sequence (P48546 22-466)
Description: as §1, §2, §3, §4

[4] = molecular target: T4, Rat GIPR (Rattus norvegicus, UniProt P43219); assay: Radioligand binding assay, rat GIPR; settings: 111In-labeled compound, 6 h, 37° C., read-out: pKD Category (converted)
T4 construct: host or cells: CHO-VGT
T4 sequence (P43219 19-455): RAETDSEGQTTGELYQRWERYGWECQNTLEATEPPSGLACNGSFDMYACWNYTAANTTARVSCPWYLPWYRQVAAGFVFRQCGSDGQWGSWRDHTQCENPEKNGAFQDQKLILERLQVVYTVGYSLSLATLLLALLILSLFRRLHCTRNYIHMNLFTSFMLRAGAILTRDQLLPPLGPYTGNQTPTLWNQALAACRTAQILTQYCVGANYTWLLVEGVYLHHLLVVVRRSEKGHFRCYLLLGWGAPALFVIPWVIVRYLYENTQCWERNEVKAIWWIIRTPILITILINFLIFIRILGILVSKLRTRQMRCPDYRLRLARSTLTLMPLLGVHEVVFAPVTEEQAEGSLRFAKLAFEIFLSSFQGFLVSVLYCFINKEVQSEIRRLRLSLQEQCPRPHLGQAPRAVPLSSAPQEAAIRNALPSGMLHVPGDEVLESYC
Description: as §1, §2, §3, §4

CC[C@H](C)[C@@H]1NC(=O)[C@H](CC(C)C)NC(=O)C2(CCN(C(=O)CN3CCN(CC(=O)O)CCN(CC(=O)O)CCN(CC(=O)O)CC3)CC2)NC(=O)[C@@H](NC(=O)[C@@H](CC(C)C)NC(=O)[C@H](CCC(=O)O)NC(=O)[C@@H]2C[C@@H](N)CN2C(=O)[C@H](Cc2c[nH]c3ccc(Cl)cc23)NC(=O)[C@H](Cc2c[nH]c3ccccc23)NC(=O)[C@H](CC(=O)O)NC(=O)CCCC(=O)NC[C@H](O)[C@@H](O)[C@H](O)[C@H](O)CO)CSCc2cccc(n2)CSC[C@@H](C(=O)NC2CCN(CC(=O)N[C@H](CCC(=O)NC[C@H](O)[C@@H](O)[C@H](O)[C@H](O)CO)C(N)=O)CC2)NC1=O [GIP-001, AGLU-Glutar-Asp-Trp-5Clw-Tap-Glu-leu-[Cys(2Lut)-Apc(DOTA)-Leu-Ile-Cys]-APAc-glu(AGLU)-NH2] ({NH(1-deoxy-D-glucityl)-Glutaryl}-DW[Trp(5-Cl)][Pro(4R-NH2)]E[dL]C[Api](DOTA)LIC[X1][dE](NH(1-deoxy-D-glucityl))-NH2; linker 7-11 via Pyridine(2,6-diCH2))
IC50 [1]: < 10 nM | Kd [2]: > 1 nM | Kd [3]: < 0.316 nM | Kd [4]: 0.316 to 1 nM
